How the values were obtained:
zfT1R2b/zfT1R3 [1] = molecular target: T1, zfT1R2b/zfT1R3 (Danio rerio, UniProt A0A8M1NDZ5+Q2MHK9); assay: Effect of anions, cations and osmotic pressure on cellular responses, cells in 10 mM Cl- buffer, zfT1R2b/zfT1R3; type: cell-based, zebrafish; details: coapplied with 2 mM L-Ala, increasing salt concentration
T1 sequence (A0A8M1NDZ5 18-823): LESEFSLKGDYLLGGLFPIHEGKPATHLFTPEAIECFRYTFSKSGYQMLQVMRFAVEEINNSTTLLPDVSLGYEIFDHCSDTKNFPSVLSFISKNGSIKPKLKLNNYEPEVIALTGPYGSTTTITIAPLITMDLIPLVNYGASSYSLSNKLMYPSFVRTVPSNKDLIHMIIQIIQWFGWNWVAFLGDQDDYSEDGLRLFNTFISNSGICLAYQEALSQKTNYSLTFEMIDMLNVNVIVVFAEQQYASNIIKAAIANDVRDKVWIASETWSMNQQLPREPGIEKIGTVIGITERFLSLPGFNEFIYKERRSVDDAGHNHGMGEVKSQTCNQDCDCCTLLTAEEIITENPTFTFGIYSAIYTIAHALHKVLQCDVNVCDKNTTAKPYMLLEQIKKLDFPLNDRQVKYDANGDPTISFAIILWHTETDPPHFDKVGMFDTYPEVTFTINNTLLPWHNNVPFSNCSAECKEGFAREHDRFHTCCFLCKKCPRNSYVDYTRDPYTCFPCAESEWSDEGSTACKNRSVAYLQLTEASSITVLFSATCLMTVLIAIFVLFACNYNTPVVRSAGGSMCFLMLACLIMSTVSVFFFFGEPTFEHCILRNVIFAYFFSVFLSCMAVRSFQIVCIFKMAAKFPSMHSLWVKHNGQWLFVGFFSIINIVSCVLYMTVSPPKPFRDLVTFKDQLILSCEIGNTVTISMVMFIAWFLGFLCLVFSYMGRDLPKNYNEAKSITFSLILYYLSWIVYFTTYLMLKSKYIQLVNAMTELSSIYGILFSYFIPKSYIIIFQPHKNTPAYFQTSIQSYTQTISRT
T1 sequence (Q2MHK9 25-850): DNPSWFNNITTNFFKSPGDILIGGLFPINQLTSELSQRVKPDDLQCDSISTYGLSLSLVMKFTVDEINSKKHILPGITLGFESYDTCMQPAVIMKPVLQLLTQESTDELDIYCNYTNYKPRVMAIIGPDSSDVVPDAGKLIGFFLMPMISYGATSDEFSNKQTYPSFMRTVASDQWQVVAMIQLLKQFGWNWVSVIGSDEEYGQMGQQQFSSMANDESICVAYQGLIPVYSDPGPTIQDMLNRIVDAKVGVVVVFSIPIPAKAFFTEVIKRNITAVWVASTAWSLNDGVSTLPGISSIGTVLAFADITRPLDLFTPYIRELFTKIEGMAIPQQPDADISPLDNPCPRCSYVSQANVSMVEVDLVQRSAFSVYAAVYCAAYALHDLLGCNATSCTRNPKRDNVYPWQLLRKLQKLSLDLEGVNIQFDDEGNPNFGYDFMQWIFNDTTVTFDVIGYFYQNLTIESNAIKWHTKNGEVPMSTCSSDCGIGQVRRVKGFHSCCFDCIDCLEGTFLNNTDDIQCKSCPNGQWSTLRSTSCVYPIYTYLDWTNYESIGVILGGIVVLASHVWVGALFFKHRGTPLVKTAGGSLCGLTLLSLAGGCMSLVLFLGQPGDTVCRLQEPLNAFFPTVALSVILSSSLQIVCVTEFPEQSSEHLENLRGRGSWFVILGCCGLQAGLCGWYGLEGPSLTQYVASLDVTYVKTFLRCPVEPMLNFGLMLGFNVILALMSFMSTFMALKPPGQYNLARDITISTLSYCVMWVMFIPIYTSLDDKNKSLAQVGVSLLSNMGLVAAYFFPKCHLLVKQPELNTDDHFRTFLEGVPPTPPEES
Experimental: Cells were seeded in 96-well plates coated with ε-poly-L-lysine at approximately 70,000 cells per well. […] Fluorescence changes were monitored at 2 s intervals, as described above. […] Three independent experiments were conducted for each receptor, and representative results are shown as the mean ± SEM (n = 3 replicates). Statistical tests were conducted using KyPlot version 6.0 (KyensLab Inc., Tokyo, Japan). Statistical significance was set at p < 0.05.

mfT1R2b E260K/mfT1R3 = type: cell-based, medaka fish; details: 10 mM vs high Cl- buffer
Experimental: (§1) The buffers with lower Cl^− were prepared by progressively replacing NaCl, KCl, CaCl2 and MgCl2 in the buffer with gluconate equivalents[20]. The pH was adjusted to 7.4 with NaOH. Ligands were diluted with the assay buffers at the desired concentrations.
(§2) Measurements of the responses of the cells by cell-based assay based on the intracellular Ca^2+ mobilization were carried out as described previously with some modifications[20],[34],[46],[47]. […] The cells were seeded in 96-well plates (clear-bottomed CellBIND surface plate, Corning, Glendale, AZ, USA) coated with ε-poly-L-lysine (Cosmo Bio, Tokyo, Japan) at approximately 70,000 cells per well. After 20 h, the medium was removed and replaced with high Cl^− buffer. […] Fluorescence changes (i.e., excitation at 485 nm and emission at 525 nm with a cutoff at 515 nm) were monitored at 2 s intervals. […] The response of each well was determined as ∆RFU (delta relative fluorescent units), which was calculated as (maximum fluorescent value)—(minimum fluorescent value). […] Dose‒response fitting curves were calculated by Prism 9 (GraphPad Software, San Diego, CA) using nonlinear regression (log(agonist) vs. response—variable slope), based on the integrated data from the several independent experiments.

mfT1R2b E260A/mfT1R3 = type: cell-based, medaka fish; details: 10 mM vs high Cl- buffer
Experimental: as §1, §2

mfT1R2b/mfT1R3 = assay: Ca2+ mobilization dose-response assay, stable cells expressing mfT1R2b/mfT1R3 with G16gust44; details: 10 mM vs 141.4 mM Cl- buffer
Experimental: as §1, §2

zfT1R2b/zfT1R3 [2] = molecular target: T1, zfT1R2b/zfT1R3; assay: cell-based
Experimental: as §1
Measurements of the responses of the cells by cell-based assay based on the intracellular Ca^2+ mobilization were carried out as described previously with some modifications[20],[34],[46],[47]. […] The cells were seeded in 96-well plates (clear-bottomed CellBIND surface plate, Corning, Glendale, AZ, USA) coated with ε-poly-L-lysine (Cosmo Bio, Tokyo, Japan) at approximately 70,000 cells per well. After 20 h, the medium was removed and replaced with high Cl^− buffer. After 3 h 30 min incubation at 27 °C, cells were loaded with 5 µM calcium-indicator dye Fluo-8 AM (AAT Bioquest, Sunnyvale, CA, USA) diluted in high Cl^− buffer. After incubation for 30 min at 27 °C, the cells were washed with buffers containing appropriate concentrations of Cl^−. The cellular assay was initiated after 3–5 min of resting and was completed within 5 min. The measurements were made using FlexStation 3 (Molecular Devices, Sunnyvale, CA, USA) at 27 °C. Fluorescence changes (i.e., excitation at 485 nm and emission at 525 nm with a cutoff at 515 nm) were monitored at 2 s intervals. A 100-µL aliquot of assay buffer supplemented with 2 × ligands was added at 20 s, and scanning was continued for an additional 40 s. The response of each well was determined as ∆RFU (delta relative fluorescent units), which was calculated as (maximum fluorescent value)—(minimum fluorescent value). […] Such normalized data from more than three independent experiments are reported as the mean ± standard error of the mean (SEM). Dose‒response fitting curves were calculated by Prism 9 (GraphPad Software, San Diego, CA) using nonlinear regression (log(agonist) vs. response—variable slope), based on the integrated data from the several independent experiments.

Compound	response to fixed concentration of L-Ala on coapplication (zfT1R2b/zfT1R3 [1])	effect of [Cl-]o on sensitivity (mfT1R2b E260K/mfT1R3)	effect of [Cl-]o on sensitivity (mfT1R2b E260A/mfT1R3)	effect of anionic buffer composition on sensitivity (mfT1R2b/mfT1R3)	EC50 (zfT1R2b/zfT1R3 [2]) [µM]
[Cl-].[Na+] [NaCl]	decreased				
C[C@H](N)C(=O)O [L-Ala, L-alanine]		hardly affected	hardly affected	hardly affected	2900

From publication PMC10539361, “Allosteric modulation of the fish taste receptor type 1 (T1R) family by the extracellular chloride ion” (Scientific Reports, 2023)
